From the supplement of paper PMC13380429

What was measured:
U2OS [1] = assay: cell viability relative to DMSO; higher = less toxic; conditions: 72 h
Vero E6 [2] = assay: as above; conditions: 72 h
Calu-3 [3] = assay: as above; conditions: 72 h
Caco-2 [4] = assay: as above; conditions: 72 h
HepG2 [5] = assay: as above; conditions: 72 h
[6] = test system: A549-ACE2 infected with SARS-CoV-2; assay: morphology score (similarity to uninfected cells); higher = more like uninfected cells; conditions: 24 h
[7] = test system: A549-ACE2 infected with SARS-CoV-2; assay: cell count relative to DMSO; higher = less toxic; conditions: 24 h
A549-ACE2 [8] = assay: drug-induced phospholipidosis relative to tamoxifen; higher = more phospholipidosis
[9] = test system: A549-ACE2 infected with SARS-CoV-2; assay: SARS-CoV-2 infection rate relative to DMSO; higher = more infection; conditions: 24 h
U2OS [10] = assay: drug sensitivity score (DSS) for viability; higher = more toxic; extreme values may be limits of the assay; conditions: 72 h
Vero E6 [11] = assay: as above; conditions: 72 h
Calu-3 [12] = assay: as above; conditions: 72 h
Caco-2 [13] = assay: as above; conditions: 72 h
HepG2 [14] = assay: as above; conditions: 72 h
U2OS [15] = assay: relative viability EC50 (midpoint between 100% and the lowest measured viability); higher = less toxic; conditions: 72 h
Vero E6 [16] = assay: as above; conditions: 72 h
Calu-3 [17] = assay: as above; conditions: 72 h
Caco-2 [18] = assay: as above; conditions: 72 h
HepG2 [19] = assay: as above; conditions: 72 h
A549-ACE2 [20] = assay: phospholipidosis EC50; higher = less potent phospholipidosis inducer

Clc1ccc(N/N=C(\c2ccccc2)c2ccccn2)nc1 [JIB04]
Conditions | SARS-CoV-2 infection rate, [9] [%] | cell count, [7] [%] | cell viability, Caco-2 [4] [%] | cell viability, Calu-3 [3] [%] | cell viability, HepG2 [5] [%] | cell viability, U2OS [1] [%] | cell viability, Vero E6 [2] [%] | morphology score, [6]
1 nM | – | – | 89.4 | 101 | 92.7 | 102 | 91.7 | –
10 nM | – | – | 94.1 | 108 | 87.8 | 97.9 | 102 | –
100 nM | – | – | 33.7 | 102 | 19.8 | 95.6 | 89.4 | –
0.3 µM | 104 | 99 | – | – | – | – | – | -0.14
1000 nM | – | – | 11.2 | 14.7 | 6.2 | 34.3 | 53.7 | –
3 µM | 82 | 96 | – | – | – | – | – | 0.28
10000 nM | – | – | 34.7 | 18.8 | 21.6 | 6.9 | 6.4 | –
10 µM | 36 | 88 | – | – | – | – | – | 0.37
30 µM | 50 | 54 | – | – | – | – | – | 0.36

A549-ACE2 [8]
Conditions | drug-induced phospholipidosis [%]
0.3 µM, 24 h | 4.18
0.3 µM, 48 h | 6.34
0.3 µM, 72 h | 8.31
0.833333 µM, 24 h | -0.88
3.33333 µM, 24 h | -2.31
6.66667 µM, 24 h | 22.5
10 µM, 24 h | 26.1
30 µM, 24 h | 2.4

Conditions | drug sensitivity score | relative viability EC50 [µM]
Caco-2 [13] | 24.6 | –
Caco-2 [18] | – | 0.0502
Calu-3 [12] | 15.3 | –
Calu-3 [17] | – | 0.327
HepG2 [14] | 28.1 | –
HepG2 [19] | – | 0.0327
U2OS [10] | 13.2 | –
U2OS [15] | – | 0.595
Vero E6 [11] | 10.7 | –
Vero E6 [16] | – | 0.943

Nc1nc(N)c(N=O)c(OCC2CCCCC2)n1 [NU-6027]
Conditions | SARS-CoV-2 infection rate, [9] [%] | cell count, [7] [%] | cell viability, Caco-2 [4] [%] | cell viability, Calu-3 [3] [%] | cell viability, HepG2 [5] [%] | cell viability, U2OS [1] [%] | cell viability, Vero E6 [2] [%] | morphology score, [6]
1 nM | – | – | 100 | 101 | 87.7 | 104 | 96 | –
10 nM | – | – | 97.5 | 117 | 92.7 | 101 | 105 | –
100 nM | – | – | 96.6 | 106 | 96.4 | 104 | 99.8 | –
0.3 µM | 104 | 100 | – | – | – | – | – | -0.13
1000 nM | – | – | 100 | 105 | 89.9 | 101 | 95 | –
3 µM | 68 | 103 | – | – | – | – | – | 0.59
10000 nM | – | – | 46 | 81.4 | 58.4 | 70.7 | 89.7 | –
10 µM | 52 | 107 | – | – | – | – | – | 0.62
30 µM | 41 | 100 | – | – | – | – | – | 0.46

drug-induced phospholipidosis [%], A549-ACE2 [8]
Conditions | 0.3 µM | 0.833333 µM | 3.33333 µM | 6.66667 µM | 10 µM | 30 µM
24 h | 1.28 | -0.02 | 2.45 | 3.35 | 2.35 | 28.5
48 h | 2.37 | -0.39 | -0.5 | -1.38 | 1.26 | –
72 h | 1.92 | -1.07 | -2.27 | -1.09 | -1.29 | –

Conditions | drug sensitivity score | relative viability EC50 [µM]
Caco-2 [13] | 2.9 | –
Caco-2 [18] | – | 3.17
Calu-3 [12] | 0.3 | –
Calu-3 [17] | – | > 10
HepG2 [14] | 3.7 | –
U2OS [10] | 1.2 | –
Vero E6 [11] | 0 | –
Vero E6 [16] | – | > 10

CC[C@@H](C)CNCC(=O)N1CCc2sccc2[C@@H]1COc1cccc(C)c1 [RU-SKI-43]
Conditions | SARS-CoV-2 infection rate [%] | cell count [%] | cell viability [%] | morphology score | phospholipidosis EC50 [µM]
A549-ACE2 [20], 24 h | – | – | – | – | 3.7
A549-ACE2 [20], 48 h | – | – | – | – | 4.58
A549-ACE2 [20], 72 h | – | – | – | – | 6.66
Caco-2 [4], 1 nM | – | – | 98.8 | – | –
Caco-2 [4], 10 nM | – | – | 103 | – | –
Caco-2 [4], 100 nM | – | – | 90.4 | – | –
Caco-2 [4], 1000 nM | – | – | 107 | – | –
Caco-2 [4], 10000 nM | – | – | 83.2 | – | –
Calu-3 [3], 1 nM | – | – | 94.9 | – | –
Calu-3 [3], 10 nM | – | – | 103 | – | –
Calu-3 [3], 100 nM | – | – | 102 | – | –
Calu-3 [3], 1000 nM | – | – | 109 | – | –
Calu-3 [3], 10000 nM | – | – | 80.8 | – | –
HepG2 [5], 1 nM | – | – | 104 | – | –
HepG2 [5], 10 nM | – | – | 94.5 | – | –
HepG2 [5], 100 nM | – | – | 99.6 | – | –
HepG2 [5], 1000 nM | – | – | 108 | – | –
HepG2 [5], 10000 nM | – | – | 86.8 | – | –
U2OS [1], 1 nM | – | – | 95.5 | – | –
U2OS [1], 10 nM | – | – | 98.1 | – | –
U2OS [1], 100 nM | – | – | 94.4 | – | –
U2OS [1], 1000 nM | – | – | 99.5 | – | –
U2OS [1], 10000 nM | – | – | 93 | – | –
Vero E6 [2], 1 nM | – | – | 93.7 | – | –
Vero E6 [2], 10 nM | – | – | 92.9 | – | –
Vero E6 [2], 100 nM | – | – | 90.4 | – | –
Vero E6 [2], 1000 nM | – | – | 98.3 | – | –
Vero E6 [2], 10000 nM | – | – | 92.8 | – | –
[6], 0.3 µM | – | – | – | -0.05 | –
[6], 3 µM | – | – | – | 0.65 | –
[6], 10 µM | – | – | – | 0.83 | –
[6], 30 µM | – | – | – | 0.3 | –
[7], 0.3 µM | – | 98 | – | – | –
[7], 3 µM | – | 116 | – | – | –
[7], 10 µM | – | 119 | – | – | –
[7], 30 µM | – | 100 | – | – | –
[9], 0.3 µM | 102 | – | – | – | –
[9], 3 µM | 60 | – | – | – | –
[9], 10 µM | 24 | – | – | – | –
[9], 30 µM | 24 | – | – | – | –

drug-induced phospholipidosis [%], A549-ACE2 [8]
Conditions | 0.3 µM | 0.833333 µM | 3.33333 µM | 6.66667 µM | 10 µM | 30 µM
24 h | 2.31 | 9.84 | 41 | 92 | 102 | 95.8
48 h | 1.76 | 10.7 | 27.3 | 78.5 | 100 | 95
72 h | 3.03 | 9.34 | 27.4 | 73.8 | 102 | –

Conditions | drug sensitivity score | relative viability EC50 [µM]
Caco-2 [13] | 0.2 | –
Caco-2 [18] | – | > 10
Calu-3 [12] | 0.3 | –
Calu-3 [17] | – | > 10
HepG2 [14] | 0 | –
HepG2 [19] | – | > 10
U2OS [10] | 0 | –
U2OS [15] | – | > 10
Vero E6 [11] | 0 | –
Vero E6 [16] | – | > 10

CCN(CC)Cc1cc(Nc2ccnc3cc(Cl)ccc23)ccc1O [amodiaquine]
Conditions | SARS-CoV-2 infection rate, [9] [%] | cell count, [7] [%] | cell viability, Caco-2 [4] [%] | cell viability, Calu-3 [3] [%] | cell viability, HepG2 [5] [%] | cell viability, U2OS [1] [%] | cell viability, Vero E6 [2] [%] | morphology score, [6]
1 nM | – | – | 99.3 | 114 | 103 | 98.5 | 101 | –
10 nM | – | – | 92.1 | 110 | 79 | 101 | 99.3 | –
100 nM | – | – | 90.2 | 106 | 85.7 | 103 | 101 | –
0.3 µM | 87 | 109 | – | – | – | – | – | 0.38
1000 nM | – | – | 96.7 | 91.5 | 85.7 | 98.1 | 95.3 | –
3 µM | 24 | 121 | – | – | – | – | – | 0.87
10000 nM | – | – | 58.5 | 81.8 | 57.7 | 93.9 | 84.9 | –
10 µM | 12 | 133 | – | – | – | – | – | 0.76
30 µM | 14 | 121 | – | – | – | – | – | 0.1

Conditions | drug sensitivity score | relative viability EC50 [µM]
Caco-2 [13] | 2.6 | –
Calu-3 [12] | 1.3 | –
Calu-3 [17] | – | > 10
HepG2 [14] | 5.5 | –
U2OS [10] | 0 | –
U2OS [15] | – | > 10
Vero E6 [11] | 0.6 | –
Vero E6 [16] | – | > 10
